Values quoted from earlier work, collected in patent publication US8986529B2, “Isotachophoresis having interacting anionic and cationic shock waves” (The Board of Trustees of the Leland Stanford Junior …, priority 2010, dated 2015).

Settings: Table 1; fully-ionized (absolute) mobility of the +1 cation; cationic LE+/TE+ candidates for focusing to separation mode

Row | Compound | μ+1
1 | Cc1ccccn1 [2-methyl pyridine] | 40.1 ×10^−9 m^2V^−1s^−1
2 | Cc1cccnc1 [3-methyl pyridine] | 40.1 ×10^−9 m^2V^−1s^−1
3 | CC(N)(CO)CO [Amediol] | 33.5 ×10^−9 m^2V^−1s^−1
4 | N=C(N)NCCC[C@H](N)C(=O)O [Arginine] | 26.9 ×10^−9 m^2V^−1s^−1
5 | c1c[nH]cn1 [Imidazole] | 52 ×10^−9 m^2V^−1s^−1
6 | NC(CO)(CO)CO [Tris] | 29.5 ×10^−9 m^2V^−1s^−1

Same assay, conditions: Table 2; absolute mobility of the cation; cationic LE+/TE+ candidates for bidirectional cascade ITP

Row | Compound | μ+1
7 | Cc1ccccn1 [2-methyl pyridine] | 40.1 ×10^−9 m^2V^−1s^−1
8 | Cc1ccncc1 [4-methyl pyridine] | 40.1 ×10^−9 m^2V^−1s^−1
9 | OCCN(CCO)C(CO)(CO)CO [Bistris] | 26 ×10^−9 m^2V^−1s^−1
10 | c1c[nH]cn1 [Imidazole] | 52 ×10^−9 m^2V^−1s^−1
11 | c1ccncc1 [Pyridine] | 30 ×10^−9 m^2V^−1s^−1
12 | NC(CO)(CO)CO [Tris] | 29.5 ×10^−9 m^2V^−1s^−1

Settings: Table 1; cationic LE+/TE+ candidates for focusing to separation mode

Row | pKa,+1 | Compound
13 | 5.5 | Cc1cccnc1 [3-methyl pyridine]
14 | 7.15 | c1c[nH]cn1 [Imidazole]

Row | Compound | pKa,+1
15 | N=C(N)NCCC[C@H](N)C(=O)O [Arginine] | 8.92

Same assay, conditions: Table 2; acid dissociation constant of the cation; bidirectional cascade ITP buffers

Row | Compound | pKa,+1
16 | Cc1ccccn1 [2-methyl pyridine] | 6.2
17 | c1c[nH]cn1 [Imidazole] | 7.15

Same assay, conditions: text b64: pKa,TE− of Tricine, pKa,LE+ of Imidazole, pKa,TE+ of Arginine

Row | Compound | pKa
18 | N=C(N)NCCC[C@H](N)C(=O)O [Arginine] | 8.92
19 | c1c[nH]cn1 [Imidazole] | 7.15
